# Measurements: US20150174059A1, “ORAL CARE” (University of Pretoria, priority 2012, published 2015)
# Counter-ions that a name gives are not always drawn. Like-named read-outs stand apart in the source and are kept apart here. Marks after values point to notes of the source that are not given here. Numbered stars: 1 amine (or outer) side, 2 acyl side, 3 side chain; on linkers, the order of the positions; unused ones are H or OH. Bridge positions count the residues as written; N and C are the ends. Square brackets hold non-standard residues; d marks the D form. Peptide text beside a SMILES is read from it. I, II: the chains in the order shown. Actinocin(9to1) = Cc1c2oc3c(C)ccc(C(=O)[*:1])c3nc-2c(C(=O)[*:2])c(N)c1=O; NMeV = CN[C@H](C(=O)O)C(C)C; Sar = CNCC(=O)O
# Key:
# [1] = tested on: Actinomyces israelii (ATCC 10049); experiment: Microdilution MIC/MBC against Actinomyces israelii; assay type: cell-based; conditions: for MIC / MBC: ATCC10049
# Description: (§1) The microorganisms used in this study included Actinomyces israelii (ATCC 10049), Prevotella intermedia (ATCC 25611), Streptococcus mutans (ATCC 25175), Candia albicans (ATCC 10231) and a strain of Candida albicans resistant to polyenes and azoles (1051604). The bacteria were grown on Casein-peptone Soymeal-peptone Agar medium (CASO) (Merck Chemicals (Pty) Ltd Wadeville, South Africa) under anaerobic conditions in an anaerobic jar with Anaerocult® A (Merck KGaA Darmstadt, Germany), at 37° C. for 72 hours. Actinomyces israelii and S. mutans had CASO agar enriched with 1% sucrose (Merck Chemicals (Pty) Ltd Wadeville, South Africa). The drug susceptible and drug resistant strains of C. albicans were grown on Sabouraud Dextrose 4% Agar (SDA) (Merck Chemicals (Pty) Ltd Wadeville, South Africa), at 37° C. for 72 hours. Sub-culturing was done every second week. Inocula were prepared by suspending bacterial test organisms in their respective broths until turbidity was compatible with McFarland Standard 1 (Merck Chemicals (Pty) Ltd Wadeville, South Africa). Yeast test organisms were suspended in sterile distilled water until turbidity was compatible with McFarland Standard 1 (McFarland, 1907).
# (§2) The microdilution technique using 96-well micro-plates, as described by Eloff (1998) was used to obtain the MIC and MBC values of the crude extracts against the microorganisms under study. The extracts, dissolved in 10% dimethyl sulphoxide (DMSO) (Merck Chemicals (Pty) Ltd), were serially diluted in broth (enriched for A. israelii and S. mutans) for the bacteria and sterile water for the Candida species; in the 96-well plate adding 48 hour old microorganisms grown at 37° C. The final concentration of extracts ranged from 12.5-0.10 mg/ml and the positive control, 5% chlorhexidine gluconate (CHX) (Dental Warehouse, Sandton, South Africa), ranged from 12.5-3.8×10^−4 mg/ml. Amphotericin B (Davis Diagnostics, Gauteng) an established antifungal drug, ranging from 0.2 mg/ml to 1.5×10^−3 mg/ml, was included for the Candida assays. […] Actinomyces israelii and S. mutans were incubated at 37° C., under anaerobic conditions, for 24 hours; P. intermedia was incubated at 37° C., under anaerobic conditions, for 48 hours; and C. albicans was incubated at 37° C. with p-iodonitrotetrazolium violet (INT) (Sigma-Aldrich, South Africa) already added, under moist aerobic conditions, for 24 hours.
# (§3) To indicate bacterial growth, 50 μl of (0.2 mg/ml) INT, was added to micro-plate wells and incubated at 37° C., under anaerobic conditions, for 20-60 minutes until a red colour developed. The MIC was defined as the lowest concentration that inhibited the colour change of INT. […] These suspensions were reincubated at 37° C. for 28 hours (48 hours for P. intermedia), under anaerobic conditions. The MBC was determined as the lowest concentration of extract which inhibited 100% growth of microorganisms (Cohen et al., 1998).
# HEp-2 cells = experiment: Cytotoxicity, XTT method, HEp-2 cells; assay type: cell-based; conditions: for CC50: Homo sapiens, 72 h, read-out: 50% inhibition of cell growth IC50 + S.D.
# Description: (§4) Microtitre plates with Vero and HEp-2 cells (Highveld Biological, Gauteng) were used for testing the four best ethanol extracts for cytotoxicity following the method of Basson (2005). Cytotoxicity was measured by the XTT (Sodium 3′-[1-(phenyl amino-carbonyl)-3,4-tetrazolim]-bis-[4 methoxy-6-nitro]benzene sulfonic acid hydrate) method using the cell proliferation kit II (Roche Diagnostics GmbH). A hundred microliters of Vero and HEp-2 cells (1×10^5 ml) were seeded onto micro-plates and incubated for 24 hrs to allow the cells to attach to the bottom of the plate. Dilution series were made of the extracts and the various concentrations (400-3.1 μg/ml) were added to the micro-plate and incubated for 72 hours. The XTT reagents were added to a final concentration of 0.3 mg/ml and the cells were incubated for one to two hours. The positive drug controls Doxorubicin HCl (Sigma-Aldrich, South Africa) and Actinomycin D (Sigma-Aldrich, South Africa), at concentration ranges of 0.78-0.01 μg/ml, were included in the assay. After incubation the absorbance of the colour was spectrophotometrically quantified using an enzyme-linked immunosorbent assay (ELISA) plate reader (BIO-TEK Power-Wave XS, Weltevreden Park, South Africa), which measured the optical density at 490 nm with a reference wavelength of 690 nm. The assay was carried out in triplicate.
# [2] = tested on: Candida albicans (ATCC 10231); experiment: Microdilution MIC/MBC against Candida albicans; assay type: cell-based
# Description: as §1
# The microdilution technique using 96-well micro-plates, as described by Eloff (1998) was used to obtain the MIC and MBC values of the crude extracts against the microorganisms under study. The extracts, dissolved in 10% dimethyl sulphoxide (DMSO) (Merck Chemicals (Pty) Ltd), were serially diluted in broth (enriched for A. israelii and S. mutans) for the bacteria and sterile water for the Candida species; in the 96-well plate adding 48 hour old microorganisms grown at 37° C. The final concentration of extracts ranged from 12.5-0.10 mg/ml and the positive control, 5% chlorhexidine gluconate (CHX) (Dental Warehouse, Sandton, South Africa), ranged from 12.5-3.8×10^−4 mg/ml. Amphotericin B (Davis Diagnostics, Gauteng) an established antifungal drug, ranging from 0.2 mg/ml to 1.5×10^−3 mg/ml, was included for the Candida assays. […]
# [3] = tested on: Candida albicans resistant to polyenes and azoles (1051604); experiment: Microdilution MIC/MBC against polyene and azole resistant C. albicans; assay type: cell-based; conditions: Yeast
# Description: as §1, §2
# as §3, with “The MBC was determined as the lowest concentration of extract which inhibited 100% growth of microorganisms (Cohen et al., 1998).” left out
# Cladosprium cucumerinum = conditions: Aurentiacin A isolated from Myrica serrate; cited from earlier work
# Bacillus subtilis = conditions: Aurentiacin A isolated from Myrica serrate; cited from earlier work
# E. coli = conditions: Aurentiacin A isolated from Myrica serrate; cited from earlier work
# [4] = tested on: Streptococcus mutans (ATCC 25175); experiment: Microdilution MIC/MBC against Streptococcus mutans; assay type: cell-based; conditions: ATCC25175, Gram +ve
# Description: as §1
# (§5) The microdilution technique using 96-well micro-plates, as described by Eloff (1998) was used to obtain the MIC and MBC values of the crude extracts against the microorganisms under study. […]
# [5] = tested on: Prevotella intermedia (ATCC 25611); experiment: Microdilution MIC/MBC against Prevotella intermedia; assay type: cell-based; conditions: ATCC25611, Gram -ve
# Description: as §1, §5
# in vitro = assay type: cell-based; conditions: African green monkey
# Description: as §4
# DPPH antioxidant assay = assay type: biochemical; conditions: single component
# Description: DPPH (2,2-diphenyl-1-picrylhydrazyl hydrate) is a stable free radical with an unpaired valence electron at a nitrogen atom forming a bridge. The free radical can initiate a chain reaction which causes the removal of an electron from another molecule to complete its own orbital. This free valence electron forms the basis of the DPPH assay as samples are tested to determine the scavenging capability of this DPPH radical.
# A modified antioxidant assay was used (du Toit et al., 2001). A 2% stock solution of M. piperita and M. alternifolia, a 2 mg/ml stock solution of ascorbic acid (vitamin C) (Sigma-Aldrich (Pty) Ltd, Aston Manor, South Africa) and H. natalensis, a 1 mg/ml stock solution of Quercetin, a 500 μg/ml stock solution of TEAVIGO™ and a synergistic compilation of H. natalensis (3.125 mg/ml), M. alternifolia (0.05% v/v), M. piperita (0.05% v/v) and TEAVIGO™ (2.5 mg/ml) were prepared.
# In a 96 well ELISA plate, 20 μl of each sample was added to 200 μl dH2O (except for Quercetin which was added to 200 μl EtOH), serial dilutions were done. After which […] DPPH (Sigma-Aldrich (Pty) Ltd, Aston Manor, South Africa) dissolved in ethanol (40 μg/ml) were added to all wells. All samples were prepared in triplicate. […] The absorbance was measured in an ELISA plate reader at 515 nm (du Toit et al., 2001). […]
# [6] = against Actinomyces israelii, read-out: MIC of the isolated compounds
# [7] = against Actinomyces israelii, NA = Not active, read-out: MBC of the isolated compounds
molecule,measurement,setting,value
"Oc1cc(O)c2c(c1)OC(c1ccccc1)C(O)C2 (stereo not drawn) [3,5,7-trihydroxyflavan (5), 3,5,7-Trihydroxyflavan]",MIC,[1]; [6],> 1000 µg/mL
same,MIC of the isolated compounds,[1]; against Actinomyces israelii,>1000 µg/mL
same,CC50,HEp-2 cells,> 200 µg/mL
"Cc1c2oc3c(C)ccc(C(=O)N[C@@H]4C(=O)N[C@H](C(C)C)C(=O)N5CCC[C@H]5C(=O)N(C)CC(=O)N(C)[C@@H](C(C)C)C(=O)O[C@@H]4C)c3nc-2c(C(=O)N[C@@H]2C(=O)N[C@H](C(C)C)C(=O)N3CCC[C@H]3C(=O)N(C)CC(=O)N(C)[C@@H](C(C)C)C(=O)O[C@@H]2C)c(N)c1=O [Actinomycin D] (I: T[dV]P[Sar][NMeV] / II: T[dV]P[Sar][NMeV]; ester I:1-I:C, II:1-II:C; linker I:N-II:N via Actinocin(9to1))",50% inhibition of cell growth IC50 + S.D.,HEp-2 cells,9.6 × 10^−3 ± 0.0003^c μg/ml
same,"Cytotoxicity IC50, HEp-2","HEp-2 cells; XTT, 72 hours",0.0085 µg/mL
C[C@@H]1[C@H](O)[C@@H](C)/C=C/C=C/C=C/C=C/C=C/C=C/C=C/[C@H](O[C@@H]2O[C@H](C)[C@@H](O)[C@H](N)[C@@H]2O)C[C@@H]2O[C@](O)(C[C@@H](O)C[C@@H](O)[C@H](O)CC[C@@H](O)C[C@@H](O)CC(=O)O[C@H]1C)C[C@H](O)[C@H]2C(=O)O [Amphotericin B],"MIC, C.a",[2]; Yeast,>0.2^c mg/ml
same,"MBC, C.a (res)",[3],0.013^c mg/ml
same,"MIC, C.a (res)",[3],0.013^c mg/ml
"COc1c(C)c(O)cc(O)c1C(=O)/C=C/c1ccccc1 [Aurentiacin A (1), 2′-Me ether derivative of 2′,4′,6′-trihydroxy-3′-methylchalcone]",MBC,[1]; [7],62.5 µg/mL
same,MIC,[1]; [6],62.5 µg/mL
same,CC50,HEp-2 cells,6.36 ± 5.09 µg/mL
same,growth inhibition,Cladosprium cucumerinum,inhibits the growth
same,growth inhibition,Bacillus subtilis,inhibits the growth
same,growth inhibition,E. coli,inhibits the growth
"[H]/N=C(\N/C(=N/[H])NCCCCCCNC(=N)NC(=N)Nc1ccc(Cl)cc1)Nc1ccc(Cl)cc1 [Chlorhexidine, chlorhexidine gluconate]",MBC,"[1]; Gram +ve, Actinomyces israelii, read-out: MBC, A.i",39 µg/mL
same,MIC,"[1]; Gram +ve, Actinomyces israelii, read-out: MIC, A.i",33 µg/mL
same,MBC,[1]; [7],24 µg/mL
same,MIC,[1]; [6],24 µg/mL
same,MBC,"[1]; Actinomyces israelii, fractions of the ethanolic extract, against A. israelii, Na = Not active, read-out: Average minimum bactericidal concentration (MBC) of the fractions",48.8 µg/mL
same,MIC,"[1]; Actinomyces israelii, fractions of the ethanolic extract, against A. israelii, read-out: Average minimum inhibitory concentration (MIC) of the fractions",18.3 µg/mL
same,MBC,[4],415 µg/mL
same,MIC,[4],61 µg/mL
same,MBC,[5],1040 µg/mL
same,MIC,[5],260 µg/mL
same,MBC,"[2]; ATCC10231, Yeast",293 µg/mL
same,MIC,"[2]; ATCC10231, Yeast",352 µg/mL
same,MBC,[3]; Candida albicans,293 µg/mL
same,MIC,[3]; Candida albicans,260 µg/mL
"COc1cccc2c1C(=O)c1c(O)c3c(c(O)c1C2=O)C[C@@](O)(C(=O)CO)C[C@@H]3O[C@H]1C[C@H](N)[C@H](O)[C@H](C)O1 [Doxorubicin, Doxorubicin HCl]",IC50 at 72 h,in vitro,0.06 µg/mL
"O=c1c(O)c(-c2ccc(O)c(O)c2)oc2cc(O)cc(O)c12 [Quercetin (4), 3,3′,4′,5,7-pentahydroxyflavone]",MBC,[1]; [7],1000 µg/mL
same,MIC,[1]; [6],1000 µg/mL
same,CC50,HEp-2 cells,187 ± 42.6 µg/mL
same,"IC50 ± SD, 50% of DPPH that is inhibited",DPPH antioxidant assay,0.415 ± 0.01095 µg/mL
"O=C1O[C@H]([C@@H](O)CO)C(O)=C1O [Vitamin C, ascorbic acid]","IC50 ± SD, 50% of DPPH that is inhibited",DPPH antioxidant assay,1.98 ± 0.006 µg/mL
Cardamomin [Cardamomin (2)],MIC of the isolated compounds,[1]; against Actinomyces israelii,>1000 µg/mL
same,50% inhibition of cell growth IC50 + S.D.,HEp-2 cells,52.12 ± 9.41 µg/mL
